{"source": "patent US6673561B1", "about": "“Diagnostic test for thrombotic or thromboembolic disease” (Regents of the University of California, priority 1999, dated 2004)", "key": {"[1]": {"tested_on": "FPB antiserum (R4097, bleed I3)", "test": "Competitive ELISA for specificity of the FPB antiserum (competitor in solution vs surface-bound synthetic human FPB)", "format": "binding, rabbit", "details": "for IC50: FPB antiserum 1:2500, competitive ELISA, read-out: IC50, competition for antibody binding to surface-bound synthetic human FPB; for cross-reactivity, defined as IC50 of FPB divided by IC50 of competitor times 100: FPB antiserum, competitive ELISA; for competition / cross-reaction with FPB antiserum (in words): competitor in solution vs surface-bound synthetic human FPB", "protocol": "A competitive ELISA was developed to evaluate the specificity of the FPB antiserum. Unless otherwise noted, all steps were performed at room temperature, and the microplates were washed three times in between each step with 0.02 M NaH2PO4, 0.15 M NaCl, 1 mM EDTA, pH 7.4 (PNE) containing 0.1% tween-20. Microplate wells were first coated with synthetic human FPB ([…] in 0.2 M NaHCO3, […]) overnight at 4 C., and then “blocked” with 1% BSA in PNE (PNEA) for one hour. Meanwhile, serial dilutions of each competitor were prepared. The following competitors, all of human origin except where noted, were tested: native FPB (human and canine), synthetic FPB, synthetic des-arg FPB, synthetic fibrinopeptide A, and purified fibrinogen. […] of each competitor dilution were pre-incubated separately with […] of FPB antiserum (1:2500) in polypropylene microfuge tubes for 90 min. Dilutions of the competitors and of antiserum were prepared in dilution buffer (PNEA containing 0.1% tween-20). At the end of the pre-incubation period, 100 mL of each mixture were applied to duplicate FPB-coated wells and incubated for 90 min. After washing, 100 mL of peroxidase-conjugated goat anti-rabbit IgG detecting antibody (1:5000 in dilution buffer) were added to each well and incubated for one hour. After a final wash, each well was developed with 100 ml of OPD substrate solution for exactly five minutes. The reaction was stopped by addition of an equal volume of 3 N H2SO4, and the absorbance (490 nm) of each well was measured in the microplate reader.\nA competitive ELISA was developed for determination of the FPB concentration in plasma and urine ultrafiltrates. Unless otherwise noted, all steps were performed at room temperature, and the microplates were washed three times in between each step with 0.02 M NaH2PO4, 0.15 M NaCl, 1 mM EDTA, pH 7.4 (PNE) containing 0.1% tween-20. Microplate wells were first coated with synthetic FPB (2 μg/ml in 0.2 M NaHCO3, 100 μl/well) overnight at 4 C., and then “blocked” with 1% BSA in PNE (PNEA) for one hour. Meanwhile, 20 μl of ultrafiltered samples and synthetic FPB standards (1.56-100 ng/ml) were pre-incubated separately with 200 μl of FPB antiserum (1:2500) in polypropylene microfuge tubes for one hour. Dilutions of the FPB standard and antiserum were prepared in dilution buffer (PNEA containing 0.1% tween-20). At the end of the pre-incubation period, 100 μl of each mixture were applied to duplicate FPB-coated wells and incubated for one hour. After washing, 100 μl of peroxidase-conjugated goat anti-rabbit IgG detecting antibody (1:5000 in dilution buffer) were added to each well and incubated for one hour. After a final wash, each well was developed with 100 μl of OPD substrate solution for exactly five minutes. The reaction was stopped by addition of an equal volume of 3 N H2SO4, and the absorbance (490 nm) of each well was measured in a microplate reader. The concentration of FPB in the samples was interpolated from a standard curve obtained by plotting the FPB concentration of each standard versus the corresponding absorbance. If sample values exceeded the upper limit of the standard curve, those samples were re-tested after appropriate dilution with dilution buffer. The intra- and inter-assay coefficients of variation for the FPB assay were 14.1% and 5.0%, respectively. The competitive ELISA was also used to assess the cross-reactivity of the FPB antiserum with human fibrinogen, fibrinopeptide A (FPA), des-arg FPB, and canine FPB."}, "[2]": {"tested_on": "experimentally induced thrombi", "test": "Canine experimental thrombosis model, FPBtot in plasma and urine (Example 2)", "format": "in vivo, dog", "details": "heparin bolus 300 units/kg, infusion 90 units/kg/hr after embolization, three dogs", "excerpt": "Adult mongrel dogs were anesthetized and their native fibrinogen depleted. After the ancrod has been eliminated from the circulation, during a time when the native fibrinogen activity is minimal, experimental thrombi are induced as previously described (Morris et al. 1997b). The dogs are anesthetized with halothane, intubated and mechanically ventilated to maintain arterial blood gases within normal limits. […] After this, they were transfused with 6 grams of purified human fibrinogen in normal saline to achieve a fibrinogen level of at least 300 mg/dl. Under these conditions, fibrinogen levels were maintained at >200 mg/dl throughout the study period.\nDouble balloon catheters were advanced via hind-leg saphenous veins to the femoral veins on each side. The balloons were then inflated, creating a 5 ml sealed chamber within the veins. […]\nBlood and urine samples were collected into titrated tubes (containing protease inhibitors) at baseline, after defibrinogenation, at regular intervals after thrombus induction, and after anticoagulation. […] All samples were stored at […] until analyzed. FPBtot levels in urine and ultrafiltrated plasma are determined by immunoassay as described above.\nThe means and standard deviations of the FPBtot levels, as determined by immunoassay, associated with each time point are calculated. […]"}, "[3]": {"tested_on": "femoral vein thrombi / pulmonary emboli", "test": "Canine fibrinogen-replacement thrombosis and pulmonary embolism model, FPB in plasma and urine (Example 3)", "format": "in vivo, dog", "details": "n=3", "protocol": "A competitive ELISA was developed for determination of the FPB concentration in plasma and urine ultrafiltrates. Unless otherwise noted, all steps were performed at room temperature, and the microplates were washed three times in between each step with 0.02 M NaH2PO4, 0.15 M NaCl, 1 mM EDTA, pH 7.4 (PNE) containing 0.1% tween-20. Microplate wells were first coated with synthetic FPB (2 μg/ml in 0.2 M NaHCO3, 100 μl/well) overnight at 4 C., and then “blocked” with 1% BSA in PNE (PNEA) for one hour. Meanwhile, 20 μl of ultrafiltered samples and synthetic FPB standards (1.56-100 ng/ml) were pre-incubated separately with 200 μl of FPB antiserum (1:2500) in polypropylene microfuge tubes for one hour. Dilutions of the FPB standard and antiserum were prepared in dilution buffer (PNEA containing 0.1% tween-20). At the end of the pre-incubation period, 100 μl of each mixture were applied to duplicate FPB-coated wells and incubated for one hour. […] The reaction was stopped by addition of an equal volume of 3 N H2SO4, and the absorbance (490 nm) of each well was measured in a microplate reader. The concentration of FPB in the samples was interpolated from a standard curve obtained by plotting the FPB concentration of each standard versus the corresponding absorbance. […]"}, "[4]": {"test": "Urinary FPBtot before and during anticoagulation in VTE patients (Example 6)", "format": "in vivo, human", "excerpt": "Consecutive patients referred to the VTE service in whom the diagnosis of DVT and/or PE is confirmed (based on the criteria described above) are enrolled. Prior to therapy, blood and urine samples are collected for measurement of FPBtot (and other FPB measurements described above). Patients are then be treated with intravenous heparin (80 units/kg bolus, 18 units/kg/hr infusion), with the dose adjusted per protocol to keep aPTT 1.5-2.5 times the control values. As soon as steady-state “therapeutic doses” of heparin are maintained, blood and urine are collected again and the same parameters are measured. In addition, plasma aPTT, anti-Xa and anti-thrombin measurements are made as previously described (Morris et al. 1998).\nFor each patient, the difference between urinary and plasma FPBtot levels, measured before and after anticoagulation, is recorded. The mean reduction in FPBtot levels after anticoagulation is calculated. The required sample size is estimated based on the preliminary data described below: The mean (+/−SD) decrease in urinary FPBtot during anticoagulation was 60 ng/ml (+/−85.7 ng/ml). Assuming similar standard deviations for the VTE patients to be studied, thirty-seven pairs of samples are required in order to detect a 50% decrease in the levels after anticoagulation, with an alpha of 0.01 and a power of 95%."}}, "note": "“Also recorded” adds a separate entry of the source."}
{"substance": "QGVNDNEEGFFSA [des-arg FPB, degradation product formed as FPB is exposed to carboxypeptidases in normal plasma]", "values": [{"measurement": "IC50", "setting": "[1]", "result": 8.9, "unit": "nM"}, {"measurement": "cross-reactivity, defined as IC50 of FPB divided by IC50 of competitor times 100", "setting": "[1]", "result": 75, "unit": "%"}]}
{"substance": "native human FPB: FPB derived from purified human fibrinogen clotted with thrombin, ultrafiltrate (QGVNDNEEGFFSAR)", "values": [{"measurement": "competition / cross-reaction with FPB antiserum (in words)", "setting": "[1]", "result": "effective competitive inhibitor"}]}
{"substance": "fibrinogen: purified human fibrinogen, used as ELISA competitor and for transfusion of dogs", "values": [{"measurement": "IC50", "setting": "[1]", "result": 2.3, "unit": "nM"}, {"measurement": "competition / cross-reaction with FPB antiserum (in words)", "setting": "[1]", "result": "significant cross-reaction; also recorded: significant cross-reactivity"}]}
{"substance": "native canine FPB: FPB derived from purified canine fibrinogen clotted with thrombin, ultrafiltrate (HYYDDTDEEERIVSTVDAR)", "values": [{"measurement": "competition / cross-reaction with FPB antiserum (in words)", "setting": "[1]", "result": "did not compete"}]}
{"substance": "QGVNDNEEGFFSAR [FPB, human fibrinopeptide B, cleaved by thrombin from the beta-chains of fibrin I]", "values": [{"measurement": "IC50", "setting": "[1]", "result": 6.7, "unit": "nM"}]}
{"substance": "heparin", "values": [{"measurement": "thrombosis after excess heparin", "setting": "[2]", "result": "thrombosis is halted"}, {"measurement": "rise in plasma FPB following embolization", "setting": "[3]; heparin iv 300 units/kg bolus, 90 units/kg/hr, one hour prior to embolization", "result": "completely suppressed"}, {"measurement": "initial peak of total urinary FPB", "setting": "[3]; heparin iv one hour prior to embolization", "result": "suppressed"}, {"measurement": "urinary levels of FPB during anticoagulation (in words)", "setting": "[4]; all but one patient", "result": "significantly decreased"}, {"measurement": "mean decrease in urinary FPBtot during anticoagulation", "setting": "[4]; preliminary data, mean (+/-SD)", "result": 60, "unit": "ng/mL"}]}
{"substance": "FPA: short amino acid sequence at the amino terminus of the alpha chain of fibrinogen (ADSGEGDFLAEGGGVR)", "values": [{"measurement": "cross-reactivity, defined as IC50 of FPB divided by IC50 of competitor times 100", "setting": "[1]", "result": "< 0.1", "unit": "%"}]}
